These results are taken from patent EP0262209B1, “SYNERGISTIC PLANT GROWTH REGULATOR COMPOSITIONS” (RHONE POULENC NEDERLAND B.V., priority 1986, dated 1987).

Molecules are shown by their SMILES.

Test [1] relates to snapbean plants. The test can be described thus: Defoliation of snapbean plants, foliar spray (Example VI, Table C). The test is classed as in vivo, Phaseolus vulgaris var. Cranberry. As to conditions: Phaseolus vulgaris, foliar spray, 96 hours after treatment, read-out: Percent Defoliation; for pest or weed control at 280.212 g/ha: Rate 0.25 Pounds per Acre; for pest or weed control at 560.425 g/ha: Rate 0.50 Pounds per Acre. The procedure:
(§1) Solutions of the test compounds and compositions identified in Table C below were prepared by dissolving the compounds in acetone/water (50:50 volume/volume) containing 0.1 percent volume/volume of Triton X-100 surfactant commercially available from Rhom and Haas Company, Philadelphia, Pennsylvania. As detailed below, these solutions of the test compounds and compositions were applied to snapbean plants at a concentration of 0.25 pounds of each active ingredient per acre (0.28 kg/ha) or 0.50 pounds of each active ingredient per acre (0.56 kg/ha). The compositions were applied to the snapbean plants as a mixture. Ethephon is commercially available from Union Carbide Agricultural Products Company, Inc., Research Triangle Park, North Carolina.
(§2) Into 13.5 centimeter diameter plastic pots containing a potting soil mix, i.e., one-third sandy loam soil, one-third peat moss and one-third perlite by volume, were sown three snapbean seeds (Phaseolus vulgaris var. Cranberry). Five to seven days after planting, the plants were thinned to one plant per pot. Ten to fourteen days after planting at the time of full expansion of the primary leaves, each concentration of the test compounds and compositions identified in […] (each pot sprayed with a volume equivalent to 180 gallons per acre) - i.e. 1683 l/ha was applied to three snapbean plants as a foliar spray by use of an aspirated spray apparatus set at 10 psig air pressure (517 mmHg). As a control, a water-acetone solution containing no test compound or composition was also sprayed on three snapbean plants. When dry, all or the plants were placed in a greenhouse at a temperature of 80°F ± 5°F (27°C ± 3°C) and humidity of 50 percent ± 5 percent. At 96 hours after treatment, percent defoliation of the snapbean plants was determined by visual observation. The values obtained For the control and each test compound and composition were averaged to obtain the results in Table C.

Test [2] has as its system snapbean plants. As to the kind of experiment: Defoliation of snapbean plants with various ethylene releasing agents (Example XVI, Table M). The test is classed as in vivo, Phaseolus vulgaris var. Cranberry. The procedure: as §1, §2
In a manner similar to the procedure described in Example VI , the defoliation effect on snapbean plants was determined for representative synergistic compositions at various rates of application using various ethylene releasing agents identified in Table M below. The ethylene releasing agents used in […] are known materials which can be prepared by conventional methods.

Test [3] relates to snapbean plants. As to the kind of experiment: Abscission of snapbean plant leaves with ethylene gas exposure (Example XVII, Table N). The test is classed as in vivo, Phaseolus vulgaris var. Cranberry.
The test system of another test is cotton plant. The test can be described thus: Regrowth of cotton following defoliation, DEF treated plant as standard (Example XIV, Table K). It is filed as in vivo. As to conditions: regrowth relative to DEF standard (43 percent), Rate 0.5 Pounds per Acre, 30 days after treatment. The procedure: (§3) Solutions of the test compounds and compositions identified in Table F were prepared by dissolving the compounds in acetone/water (50:50 volume/volume) containing 0.1 percent volume/volume of Surfel® spray adjuvant commercially available from Union Carbide Corporation, Danbury, Connecticut. As detailed below, these solutions of test compounds and compositions were applied to cotton plants at a concentration of 0.5 pounds of each active ingredient per acre (0,6 kg/ha) or 2.0 pounds of active ingredient per acre (2,2 kg/ha). The compositions were applied to cotton as mixtures.
(§4) The above solutions were applied to cotton plants growing under field conditions at a spray volume equivalent to 100 gallons per acre 935 l/ha) by use of a carbon dioxide backpack sprayer set at about 30 psig air pressure (2 bar). The application timing coincided with a cotton maturity phase equivalent to about 40 percent open bolls. As a control, a water-acetone solution containing no test compound or composition was also sprayed on the cotton plants. At four days after treatment, percent defoliation of the cotton plants was determined by visual observation. At 14 days after treatment, percent boll opening was determined by visual observation of the number of open bolls/total number of bolls. The percent defoliation and percent boll opening values obtained for the control and each of the test compounds and compositions are reported in Table F as the average of three replications. TABLE F
In a manner similar to the procedure described in Example IX , the effect of cotton regrowth after defoliation was determined for representative synergistic compositions at various rates of application. The percent regrowth inhibition and stimulation in Table R below were determined by visual observation based on the percent of a cotton plant having regrowth using a DEF treated cotton plant as the standard. DEF is commercially available from Mobay Chemical Corporation, Kansas City, Missouri. The average regrowth of a cotton plant treated with DEF was 43 percent. As used in Table R, percent regrowth inhibition resulted from a cotton plant having a regrowth percentage less than 43 percent (DEF standard), and percent regrowth stimulation resulted from a cotton plant having a regrowth percentage greater than 43 percent. The percent regrowth inhibition and stimulation were determined 30 days after treatment.

The test system of the next test is cotton plants. As to the kind of experiment: Defoliation and boll opening of cotton under field conditions (Example IX, Table F). It is filed as in vivo. Set-up: key to Percent Boil Opening: *: Percent boll opening essentially the same as the control as determined by visual observation. The conditions noted are these: Rate 2.0 Pounds per Acre. The procedure:
as §3, §4

For test [4], the system named is cotton. The test can be described thus: Sequential applications, defoliation of cotton (Example XI, Table H). The test is classed as in vivo. As to conditions: alone. The procedure:
In a manner similar to the procedure described in Example VI , the defoliation effect on snapbean plants was determined for representative synergistic compositions using both combination (tank mix) and sequential application methods. In the sequential application method, the second compound was applied 78 hours after the first compound. TABLE E
In a manner similar to the procedure described in Example VIII , the defoliation effect on cotton was determined for representative synergistic compositions using sequential application. Ethephon applications were made 7 days after application of the particular malonic acid derivative compound. TABLE H

In another test the test system is rank growth cotton. As to the kind of experiment: Defoliation of cotton (rank growth) (Example X, Table G). It is filed as in vivo. The conditions noted are these: Rate 2.0 Pounds per Acre. As for the experimental part: as §3, §4
In a manner similar to the procedure described in Example IX , the defoliation effect on rank growth cotton was determined for representative synergistic compositions at various rates of application. […] TABLE G

The subject of test [5] is cotton. As to the kind of experiment: Defoliation of cotton at various rates (Example XIII, Table J). It is filed as in vivo. As to conditions: alone. The procedure: as §3, §4
In a manner similar to the procedure described in Example IX , the defoliation effect on cotton was determined for representative synergistic compositions at various rates of application. TABLE J

Test [6] has as its system cotton. The test can be described thus: Defoliation of cotton at various rates (Example XII, Table I). The test is classed as in vivo. The conditions noted are these: Rate 0.5 Pounds per Acre, alone. The procedure: as §3, §4
In a manner similar to the procedure described in Example IX , the defoliation effect on cotton was determined for representative synergistic compositions at various rates of application.

The mark [7] stands for this setting: Concentration 0.1 ppm ethylene gas.
[8] abbreviates: Concentration 125 ppm foliar spray.
[9] abbreviates: Concentration 250 ppm foliar spray.

What is called inhibition is the percentage by which the read-out fell short of the control.

In the case of `CCOC(=O)C1(C(=O)Nc2ccc(Br)c(Cl)c2)CC1` [Compound 90], in the test with snapbean plants [1], the pest or weed control at 280.212 g/ha is 0% and the pest or weed control at 560.425 g/ha amounted to 0%.

Take `O=C(O)C1(C(=O)Nc2ccc(Br)cc2)CC1` [Compound 117]: in the test with snapbean plants [1], the pest or weed control at 280.212 g/ha amounted to 0% and the pest or weed control at 560.425 g/ha was determined as 0%.

`O=C(O)C1(C(=O)Nc2ccc(Br)cc2Cl)CC1` [Compound 121]: in the test with snapbean plants [1], the pest or weed control at 280.212 g/ha amounted to 0% and the pest or weed control at 560.425 g/ha turned out to be 0%.

Regarding `O=C(O)C1(C(=O)Nc2ccc(Cl)cc2F)CC1` [Compound 115], in the test with snapbean plants [1], the pest or weed control at 280.212 g/ha stood at 0% and the pest or weed control at 560.425 g/ha is 0%.

As for `O=C(O)C1(C(=O)Nc2cc(Cl)ccc2Cl)CC1` [Compound 113], in the test with snapbean plants [1], the pest or weed control at 280.212 g/ha was 0% and the pest or weed control at 560.425 g/ha stood at 0%.

Take `O=C(O)C1(C(=O)Nc2ccc(Br)cc2Br)CC1` [Compound 120]: in the test with snapbean plants [1], the pest or weed control at 280.212 g/ha is 0% and the pest or weed control at 560.425 g/ha was determined as 0%.

Consider `O=C(O)C1(C(=O)Nc2ccc(Cl)cc2Br)CC1` [Compound 122], for which, in the test on snapbean plants [1], the pest or weed control at 280.212 g/ha amounted to 0% and the pest or weed control at 560.425 g/ha stood at 0%.

On to `O=C(O)C1(C(=O)Nc2cc(Cl)c(Cl)cc2Cl)CC1` [Compound 112], for which, in the test on snapbean plants [1], the pest or weed control at 280.212 g/ha is 0% and the pest or weed control at 560.425 g/ha was determined as 0%.

For the compound `O=P(O)(CCCl)OCCCl` [2-Chloroethyl ester of 2-chloroethylphosphonic acid], the “Percent Defoliation” value with snapbean plants [2] (Rate 0.125 Pounds per Acre), with snapbean plants [2] (Rate 0.25 Pounds per Acre) and with snapbean plants [2] (Rate 0.50 Pounds per Acre) was 0% each time.

On to `C=C` [Ethylene Gas, ethylene, reference compound], for which, in the test with snapbean plants [3] (setting [7]), the “Percent Abscission 48 Hours” value is reported as 0% and the “Percent Abscission 96 Hours” value is reported as 0%.

As to `CCOC(=O)C1(C(=O)Nc2ccc(Cl)cc2F)CC1` [Compound 82], in the test with snapbean plants [1], the pest or weed control at 280.212 g/ha is 0% and the pest or weed control at 560.425 g/ha amounted to 0%.

For the compound `Cc1cc(Br)ccc1NC(=O)C1(C(=O)O)CC1` [Compound 111], the pest or weed control at 280.212 g/ha in the test with snapbean plants [1] was 0%. In the test with snapbean plants [1], the pest or weed control at 560.425 g/ha is 0%. For the same compound, the inhibition at 560.425 g/ha in the test on cotton plant (Gossypium hirsutum, 720 h, read-out: Percent Inhibition) turned out to be 0%. Also, in the test with cotton plant, the “Percent Stimulation” value amounted to 0%. Moreover, in the test on cotton plants (14 days after treatment, result given by footnote symbol, control 41), the “Percent Boil Opening” value is “*”. Moreover, the “Percent Defoliation” value in the test on cotton plants (field conditions, four days after treatment) came to 0%; with cotton [4] (Rate 0.5 Pounds per Acre), 0%; in the test with cotton [4] (Rate 1.0 Pounds per Acre), 0%; with snapbean plants [2] (Rate 0.125 Pounds per Acre), 0%; in the test with snapbean plants [2] (Rate 0.25 Pounds per Acre), 0%; with snapbean plants [2] (Rate 0.50 Pounds per Acre), 0%. The “Percent Defoliation” value with rank growth cotton, in the test with cotton [5] (Rate 0.25 Pounds per Acre) and in the test on cotton [5] (Rate 0.5 Pounds per Acre) was 0% in each case. Besides, the “Percent Abscission 48 Hours” value was 0% in the test with snapbean plants [3] (setting [8]) and 33% with snapbean plants [3] (setting [9]). Moreover, the results for the “Percent Abscission 96 Hours” value in the test with snapbean plants [3] (setting [8]) and with snapbean plants [3] (setting [9]) were 17% and 50%, respectively.

On to `Cc1cc(Cl)c(Cl)cc1NC(=O)C1(C(=O)O)CC1` [Compound 110, 1-(2-methyl-4,5-dichlorophenylaminocarbonyl)cyclopropanecarboxylic acid], for which the “Percent Defoliation” value in the test on cotton [6] was 0%.

As to `CCOC(=O)C1(C(=O)Nc2cc(Cl)c(Cl)cc2C)CC1` [Compound 77, ethyl 1-(2-methyl-4,5-dichlorophenylaminocarbonyl)cyclopropanecarboxylate], the “Percent Defoliation” value in the test on cotton [6] was determined as 0%.

As for `O=C(O)C1(C(=O)Nc2ccc(Cl)cc2Cl)CC1` [Compound 114], in the test with snapbean plants [1], the pest or weed control at 280.212 g/ha was found to be 0% and the pest or weed control at 560.425 g/ha came out at 0%.

With `O=C(O)C1(C(=O)Nc2ccc(Cl)cc2)CC1` [Compound 116], in the test with snapbean plants [1], the pest or weed control at 280.212 g/ha turned out to be 0% and the pest or weed control at 560.425 g/ha came out at 0%.

Turning to `O=C(O)C1(C(=O)Nc2ccc(Br)c(Cl)c2)CC1` [Compound 123], in the test on snapbean plants [1], the pest or weed control at 280.212 g/ha is 0% and the pest or weed control at 560.425 g/ha was determined as 0%.

For the compound `CCOC(=O)C1(C(=O)Nc2ccc(Br)cc2Cl)CC1` [Compound 88], in the test on snapbean plants [1], the pest or weed control at 280.212 g/ha was found to be 0% and the pest or weed control at 560.425 g/ha was 0%.

Consider `NP(N)(=O)CCCl` [2-Chloroethylphosphonic diamide], for which the “Percent Defoliation” value with snapbean plants [2] (Rate 0.125 Pounds per Acre), in the test on snapbean plants [2] (Rate 0.25 Pounds per Acre) and with snapbean plants [2] (Rate 0.50 Pounds per Acre) was 0% throughout.

For `CCOC(=O)C1(C(=O)Nc2ccc(Cl)cc2Cl)CC1` [Compound 80], in the test with snapbean plants [1], the pest or weed control at 280.212 g/ha was 0% and the pest or weed control at 560.425 g/ha worked out at 0%.
